Like-named read-outs stand apart in the source and are kept apart here.
Experiments:
[1] = biological target: T1, PKA catalytic domain (Homo sapiens, UniProt P17612); experiment: Measurement of PKA kinase inhibitory activity (IC50), 33P-ATP filter plate assay; type: biochemical
T1 construct: using the PKA catalytic domain from Upstate Biotechnology (#14-440); purchased Upstate Biotechnology 14-440
Protocol: A final concentration of 1 nM enzyme is used in a buffer that includes 20 mM MOPS pH 7.2, 40 μM ATP/γ^33P-ATP and […] substrate. Compounds are added in dimethylsulphoxide (DMSO) solution to a final DMSO concentration of 2.5%. The reaction is allowed to proceed for 20 minutes before addition of excess orthophosphoric acid to quench activity. Unincorporated γ^33P-ATP is then separated from phosphorylated proteins on a Millipore MAPH filter plate. The plates are washed, scintillant is added and the plates are then subjected to counting on a Packard Topcount.

[2] = biological target: T2, PKB-PIF fusion protein (Homo sapiens, UniProt P31751); experiment: Measurement of PKB kinase inhibitory activity (IC50), 33P-ATP phosphocellulose filter assay; type: biochemical
T2 construct: PIF (fusion partner); made in house
T2 sequence (P31751 with tags, fused parts or gaps limits assumed): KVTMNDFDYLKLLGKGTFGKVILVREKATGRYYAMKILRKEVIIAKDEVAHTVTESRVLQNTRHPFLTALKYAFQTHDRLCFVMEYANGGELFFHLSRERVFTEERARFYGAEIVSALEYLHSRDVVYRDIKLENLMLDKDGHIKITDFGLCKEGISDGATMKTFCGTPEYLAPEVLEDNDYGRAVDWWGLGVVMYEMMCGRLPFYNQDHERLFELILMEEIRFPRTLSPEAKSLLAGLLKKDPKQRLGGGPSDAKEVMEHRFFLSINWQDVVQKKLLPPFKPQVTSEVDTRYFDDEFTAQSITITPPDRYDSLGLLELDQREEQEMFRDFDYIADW
Protocol: The inhibition of protein kinase B (PKB) activity by compounds can be determined essentially as described by Andjelkovic et al. (Mol. Cell. Biol. 19, 5061-5072 (1999)) but using a fusion protein described as PKB-PIF and described in full by Yang et al (Nature Structural Biology 9, 940-944 (2002)). […] A final concentration of 0.6 nM enzyme is used in a buffer that includes 20 mM MOPS pH 7.2, 30 μM ATP/γ^33P-ATP and 25 μM substrate.
Compounds are added in DMSO solution to a final DMSO concentration of 2.5%. The reaction is allowed to proceed for 20 minutes before addition of excess orthophosphoric acid to quench activity. The reaction mixture is transferred to a phosphocellulose filter plate where the peptide binds and the unused ATP is washed away. After washing, scintillant is added and the incorporated activity measured by scintillation counting.
The % inhibition of the PKB activity is calculated and plotted in order to determine the concentration of test compound required to inhibit 50% of the PKB activity (IC50).

[3] = 1 nM enzyme, 40 μM ATP, 20 minutes, read-out: IC50, inhibition of PKA activity
[4] = 0.6 nM enzyme, 30 μM ATP, 25 μM AKTide-2T substrate, 20 minutes, read-out: IC50, inhibition of PKB activity

| IC50 [1, 3] [µM] | IC50 [2, 4] [µM] | Structure (SMILES) | IC50 [2] [µM] | IC50 [1] [µM] |
| --- | --- | --- | --- | --- |
| < 10 | < 10 | CNC1CCN(c2ncnc3[nH]cnc23)CC1 [Example 1, Methyl-[1-(9H-purin-6-yl)-piperidin-4-yl]-amine] | – | – |
| – | < 10 | c1ccc(CNC2CCN(c3ncnc4[nH]cnc34)CC2)cc1 [Example 2, Benzyl-[1-(9H-purin-6-yl)-piperidin-4-yl]-amine] | – | – |
| < 50 | < 50 | O=c1[nH]c2ncnc(N3CCC(O)(Cc4ccccc4)CC3)c2[nH]1 [Example 5, 6-(4-Benzyl-4-hydroxypiperidin-1-yl)-7,9-dihydropurin-8-one] | – | – |
| < 50 | < 50 | O=c1[nH]c2ncnc(N3CCC(NCc4ccccc4Cl)CC3)c2[nH]1 [Example 9, 6-[4-(2-Chlorobenzylamino)-piperidin-1-yl]-7,9-dihydro-purin-8-one] | – | – |
| < 10 | < 10 | O=c1[nH]c2ncnc(N3CCC(NCc4cccc(Cl)c4)CC3)c2[nH]1 [Example 10, 6-[4-(3-Chlorobenzylamino)-piperidin-1-yl]-7,9-dihydro-purin-8-one] | – | – |
| < 10 | < 10 | NC1CCN(c2ncnc3[nH]ncc23)CC1 [Example 11, 1-(1H-Pyrazolo[3,4-d]pyrimidin-4-yl)-piperidin-4-ylamine] | – | – |
| < 10 | < 10 | NCC1(c2ccc(Cl)cc2)CCN(c2ncnc3[nH]ccc23)CC1 [Example 14, C-[4-(4-Chloro-phenyl)-1-(7H-pyrrolo[2,3-d]pyrimidin-4-yl)-piperidin-4-yl]-methylamine] | – | – |
| – | < 10 | NCC1(c2ccc(Cl)cc2)CCN(c2ncnc3[nH]cnc23)CC1 [Example 15, C-[4-(4-Chloro-phenyl)-1-(9H-purin-6-yl)-piperidin-4-yl]-methylamine] | – | – |
| – | < 10 | NC1(Cc2ccccc2)CCN(c2ncnc3[nH]cnc23)CC1 [Example 16, 4-Benzyl-1-(9H-purin-6-yl)piperidin-4-ylamine] | – | – |
| < 10 | < 10 | NCC1(c2ccc(Cl)cc2)CCN(c2ncnc3[nH]c(=O)[nH]c23)CC1 [Example 20, 6-[4-Aminomethyl-4-(4-chlorophenyl)piperidin-1-yl]-7,9-dihydropurin-8-one] | – | – |
| – | < 10 | NCC1(c2ccc(Cl)cc2)CCN(c2ccnc3[nH]ccc23)CC1 [Example 21, C-[4-(4-Chlorophenyl)-1-(1H-pyrrolo[2,3-b]pyridin-4-yl)piperidin-4-yl]methylamine] | – | – |
| – | < 10 | NCC1(c2cccc(Cl)c2)CCN(c2ncnc3[nH]cnc23)CC1 [Example 27, C-[4-(3-Chlorophenyl)-1-(9H-purin-6-yl)piperidin-4-yl]methylamine] | – | – |
| – | < 10 | NCC1(c2ccc(Cl)c(Cl)c2)CCN(c2ncnc3[nH]cnc23)CC1 [Example 29, C-[4-(3,4-Dichlorophenyl)-1-(9H-purin-6-yl)piperidin-4-yl]methylamine] | – | – |
| – | < 10 | NCC1(c2ccc(OC(F)(F)F)cc2)CCN(c2ncnc3[nH]ccc23)CC1 [Example 30] | – | – |
| – | < 10 | NCC1(c2ccc(C(F)(F)F)cc2)CCN(c2ncnc3[nH]cnc23)CC1 [Example 33, C-[1-(9H-Purin-6-yl)-4-(4-trifluoromethylphenyl)piperidin-4-yl]methylamine] | – | – |
| – | < 10 | NCC1(c2cccc(C(F)(F)F)c2)CCN(c2ncnc3[nH]cnc23)CC1 [Example 35, C-[1-(9H-Purin-6-yl)-4-(3-trifluoromethylphenyl)piperidin-4-yl]methylamine] | – | – |
| – | < 10 | NCC1(c2ccc(F)c(F)c2)CCN(c2ncnc3[nH]ccc23)CC1 [Example 36, C-[4-(3,4-Difluorophenyl)-1-(7H-pyrrolo[2,3-d]pyrimidin-4-yl)piperidin-4-yl]methylamine] | – | – |
| – | < 10 | NCC1(c2ccc(F)c(F)c2)CCN(c2ncnc3[nH]cnc23)CC1 [Example 37, C-[4-(3,4-Difluorophenyl)-1-(9H-purin-6-yl)piperidin-4-yl]methylamine] | – | – |
| – | < 10 | COc1ccc(C2(CN)CCN(c3ncnc4[nH]cnc34)CC2)cc1 [Example 39, C-[4-(4-Methoxyphenyl)-1-(9H-purin-6-yl)piperidin-4-yl]methylamine] | – | – |
| – | < 10 | NCC1(c2ccc(OCc3ccccc3)cc2)CCN(c2ncnc3[nH]cnc23)CC1 [Example 41, C-[4-(4-Benzyloxyphenyl)-1-(9H-purin-6-yl)piperidin-4-yl]methylamine] | – | – |
| – | < 10 | CC(C)NCC1(c2ccc(Cl)cc2)CCN(c2ncnc3[nH]ccc23)CC1 [Example 43, [4-(4-Chlorophenyl)-1-(7H-pyrrolo[2,3-d]pyrimidin-4-yl)-piperidin-4-ylmethyl]-isopropylamine] | – | – |
| – | < 10 | NCC1(Cc2ccc(OC(F)(F)F)cc2)CCN(c2ncnc3[nH]ccc23)CC1 [Example 47, C-[1-(7H-Pyrrolo[2,3-d]pyrimidin-4-yl)-4-(4-trifluoromethoxybenzyl)piperidin-4-yl]methylamine] | – | – |
| – | < 10 | NCC1(Cc2ccc(OC(F)(F)F)cc2)CCN(c2ncnc3[nH]cnc23)CC1 [Example 48, C-[1-(9H-Purin-6-yl)-4-(4-trifluoromethoxybenzyl)piperidin-4-yl]methylamine] | – | – |
| – | < 10 | NC1(Cc2ccc(Cl)c(Cl)c2)CCN(c2ncnc3[nH]cnc23)CC1 [Example 50, 4-(3,4-Dichlorobenzyl)-1-(9H-purin-6-yl)piperidin-4-yl amine] | – | – |

Continued, molecule first:

| Structure (SMILES) | IC50 [1, 3] [µM] | IC50 [2, 4] [µM] | IC50 [2] [µM] | IC50 [1] [µM] |
| --- | --- | --- | --- | --- |
| NC1CCN(c2ncnc3[nH]c(=O)[nH]c23)CC1 [Example 4, 6-(4-Aminopiperidin-1-yl)-7,9-dihydropurin-8-one] | < 50 | < 10 | – | – |
| O=c1[nH]c2ncnc(N3CCNCC3)c2[nH]1 [Example 6, 6-(Piperazin-1-yl)-7,9-dihydropurin-8-one] | < 10 | < 10 | – | – |
| O=c1[nH]c2ncnc(N3CCN[C@H](COCc4ccccc4)C3)c2[nH]1 [Example 7, (3S)-6-(3-Benzyloxymethylpiperazin-1-yl)-7,9-dihydropurin-8-one] | < 50 | < 50 | – | – |
| O=c1[nH]c2ncnc(N3CCC(NCCc4ccccc4)CC3)c2[nH]1 [Example 8, 6-(4-Phenethylaminopiperidin-1-yl)-7,9-dihydro-purin-8-one] | < 10 | < 10 | – | – |
| NC1CCN(c2ncnc3[nH]ccc23)CC1 [Example 12, 1-(7H-Pyrrolo[2,3-d]pyrimidin-4-yl)-piperidin-4-ylamine] | < 10 | < 10 | – | – |
| NC1CCN(c2ccnc3[nH]ccc23)CC1 [Example 13, 1-(1H-Pyrrolo[2,3-b]pyridin-4-yl)-piperidin-4-ylamine] | < 10 | < 10 | – | – |
| NC1(Cc2ccc(Cl)cc2)CCN(c2ncnc3[nH]cnc23)CC1 [Example 18, 4-(4-Chlorobenzyl)-1-(9H-purin-6-yl)piperidin-4-yl amine] | < 10 | < 10 | – | – |
| NCC1(Cc2ccc(Cl)cc2)CCN(c2ncnc3[nH]ccc23)CC1 [Example 19, C-[4-(4-Chlorobenzyl)-1-(7H-pyrrolo[2,3-d]pyrimidin-4-yl)piperidin-4-yl]methylamine] | < 10 | < 10 | – | – |
| CCn1c(=O)[nH]c2ncnc(N3CCC(CN)(c4ccc(Cl)cc4)CC3)c21 [Example 22, 6-[4-Aminomethyl-4-(4-chlorophenyl)piperidin-1-yl]-7-ethyl-7,9-dihydro-purin-8-one] | – | < 10 | – | – |
| NCC1(Cc2ccc(Cl)cc2)CCN(c2ncnc3[nH]cnc23)CC1 [Example 23, C-[4-(4-Chlorobenzyl)-1-(9H-purin-6-yl)piperidin-4-yl]methylamine] | – | < 10 | – | – |
| N#CC1(c2ccc(Cl)cc2)CCN(c2ncnc3[nH]ccc23)CC1 [Example 24, 4-(4-Chlorophenyl)-1-(7H-pyrrolo[2,3-d]pyrimidin-4-yl)piperidine-4-carbonitrile] | – | – | < 10 | – |
| NC1(c2ccc(Cl)cc2)CCN(c2ncnc3[nH]ccc23)CC1 [Example 25, 4-(4-Chlorophenyl)-1-(7H-pyrrolo[2,3-d]pyrimidin-4-yl)piperidin-4-ylamine] | – | – | < 10 | < 10 |
| NCC1(c2cccc(C(F)(F)F)c2)CCN(c2ncnc3[nH]ccc23)CC1 [Example 34, C-[1-(7H-Pyrrolo[2,3-d]pyrimidin-4-yl)-4-(3-trifluoromethylphenyl)piperidin-4-yl]methylamine] | – | < 10 | – | – |
| NCC1(Cc2ccc(Cl)c(Cl)c2)CCN(c2ncnc3[nH]ccc23)CC1 [Example 45, C-[4-(3,4-Dichlorobenzyl)-1-(7H-pyrrolo[2,3-d]pyrimidin-4-yl)piperidin-4-yl]methylamine] | – | < 10 | – | – |
| NCC1(Cc2ccc(Cl)c(Cl)c2)CCN(c2ncnc3[nH]cnc23)CC1 [Example 46, C-[4-(3,4-Dichlorobenzyl)-1-(9H-purin-6-yl)piperidin-4-yl]methylamine] | – | < 10 | – | – |
| NC1(Cc2ccc(OC(F)(F)F)cc2)CCN(c2ncnc3[nH]cnc23)CC1 [Example 52, 1-(9H-Purin-6-yl)-4-(4-trifluoromethoxybenzyl)piperidin-4-ylamine] | – | < 10 | – | – |

From patent publication US8809336B2, “Ortho-condensed pyridine and pyrimidine derivatives (e.g., purines) as protein kinases inhibitors” (Astex Therapeutics Limited, priority 2004, dated 2014)
